Assay [1] in a line: Metal chelating activity assessed as compound-Cu2+ complex stoichiometry ratio of 2:1 at 10 uM in presence of CuCl2 after 30 mins by UV-visible spectrophotometric analysis.
Assay [2] addresses Cholinesterase (Equus caballus, UniProt P81908). Nature of the assay: Inhibition of equine serum BChE using butyrylthiocholine as substrate by Ellman's method.
Assay [3] is described as follows: Metal chelating activity assessed as compound-Cu2+ complex formation by measuring stability constant at 10 uM in presence of CuCl2 after 30 mins by UV-visible spectrophotometric analysis.
Assay [4] deals with Acetylcholinesterase (Electrophorus electricus, UniProt O42275). Nature of the assay: Inhibition of electric eel AChE using acetylthiocholine iodide as substrate by Ellman's method.
Chain of Acetylcholinesterase (O42275 whole entry): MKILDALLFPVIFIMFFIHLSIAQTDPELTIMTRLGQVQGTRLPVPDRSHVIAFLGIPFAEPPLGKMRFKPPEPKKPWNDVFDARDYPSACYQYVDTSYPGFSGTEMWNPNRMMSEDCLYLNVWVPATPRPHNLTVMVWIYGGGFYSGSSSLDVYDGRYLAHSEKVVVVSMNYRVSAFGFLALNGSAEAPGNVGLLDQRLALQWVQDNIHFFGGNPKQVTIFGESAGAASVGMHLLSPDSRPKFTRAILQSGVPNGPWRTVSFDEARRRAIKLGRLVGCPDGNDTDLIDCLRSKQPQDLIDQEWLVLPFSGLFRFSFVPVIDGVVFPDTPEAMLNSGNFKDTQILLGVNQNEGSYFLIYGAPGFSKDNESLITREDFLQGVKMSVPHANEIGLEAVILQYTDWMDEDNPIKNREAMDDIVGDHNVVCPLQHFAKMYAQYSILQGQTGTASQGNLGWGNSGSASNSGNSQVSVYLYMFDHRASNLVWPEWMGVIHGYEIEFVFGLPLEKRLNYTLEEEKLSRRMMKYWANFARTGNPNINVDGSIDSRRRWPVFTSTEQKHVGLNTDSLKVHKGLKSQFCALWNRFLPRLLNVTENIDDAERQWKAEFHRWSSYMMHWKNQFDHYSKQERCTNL
Assay [5] is described as follows: Metal chelating activity assessed as compound-Cu2+ complex formation by measuring band wavelength at 10 uM in presence of CuCl2 after 30 mins by UV-visible spectrophotometric analysis.
Assay [6] deals with Acetylcholinesterase (Electrophorus electricus) (UniProt O42275). Nature of the assay: Mixed type inhibition of electric eel AChE assessed as decrease in Vmax at 0.16 to 0.64 uM by reciprocal Lineweaver-Burk plot analysis.
Chain of Acetylcholinesterase (Electrophorus electricus) (O42275 24-633 limits assumed): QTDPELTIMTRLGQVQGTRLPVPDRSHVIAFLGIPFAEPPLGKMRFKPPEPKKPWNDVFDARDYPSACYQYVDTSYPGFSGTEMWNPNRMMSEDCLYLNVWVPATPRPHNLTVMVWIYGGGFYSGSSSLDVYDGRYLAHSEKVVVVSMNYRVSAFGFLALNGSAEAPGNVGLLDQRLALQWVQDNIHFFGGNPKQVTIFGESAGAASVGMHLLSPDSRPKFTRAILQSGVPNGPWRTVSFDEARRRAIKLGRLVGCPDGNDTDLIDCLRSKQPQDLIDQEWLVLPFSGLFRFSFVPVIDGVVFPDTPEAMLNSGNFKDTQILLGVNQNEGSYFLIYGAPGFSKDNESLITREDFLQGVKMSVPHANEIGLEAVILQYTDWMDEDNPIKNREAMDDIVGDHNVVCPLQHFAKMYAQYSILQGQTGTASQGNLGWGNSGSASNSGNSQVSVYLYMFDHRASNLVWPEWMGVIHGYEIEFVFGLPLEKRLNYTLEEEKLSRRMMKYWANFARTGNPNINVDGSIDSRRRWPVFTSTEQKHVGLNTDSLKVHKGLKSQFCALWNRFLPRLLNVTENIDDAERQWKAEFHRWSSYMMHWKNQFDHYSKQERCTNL
Assay [7] has the same target. Nature of the assay: Mixed type inhibition of electric eel AChE assessed as increase in Km at 0.16 to 0.64 uM by reciprocal Lineweaver-Burk plot analysis.

The source made the active and inactive calls. The calls are words filed in the database; no cut-off is given here. Some results are limits rather than exact numbers.

Chain of Cholinesterase (P81908 whole entry): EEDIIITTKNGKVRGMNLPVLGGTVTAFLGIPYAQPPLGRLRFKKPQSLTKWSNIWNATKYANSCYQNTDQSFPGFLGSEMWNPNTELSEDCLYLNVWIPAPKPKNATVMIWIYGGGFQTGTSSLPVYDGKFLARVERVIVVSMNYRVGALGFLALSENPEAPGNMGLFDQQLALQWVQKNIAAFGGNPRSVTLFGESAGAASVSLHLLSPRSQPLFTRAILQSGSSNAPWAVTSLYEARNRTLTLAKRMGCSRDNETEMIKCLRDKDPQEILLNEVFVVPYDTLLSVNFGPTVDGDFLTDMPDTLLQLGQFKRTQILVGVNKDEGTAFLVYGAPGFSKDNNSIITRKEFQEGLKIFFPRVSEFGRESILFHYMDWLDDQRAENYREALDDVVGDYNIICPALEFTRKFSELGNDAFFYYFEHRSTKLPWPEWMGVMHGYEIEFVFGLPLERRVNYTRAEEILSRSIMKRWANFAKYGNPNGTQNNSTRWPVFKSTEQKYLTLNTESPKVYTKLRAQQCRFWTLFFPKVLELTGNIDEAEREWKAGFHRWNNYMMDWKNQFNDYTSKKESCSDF

For `O=c1c2ccc(OCCN3CCCCC3)cc2oc2cc(OCCN3CCCCC3)cc(O)c12`, the result in assay [1] and in assay [5] was Active. In addition, the IC50 in assay [2] stood at 4.02 µM; in assay [4], 0.964 µM. In addition, the K in assay [3] is 2.16 ×10⁵ No_unit.

As to `O=c1c2ccc(OCCN3CCCC3)cc2oc2cc(OCCN3CCCC3)cc(O)c12`, the result in assay [1] and in assay [5] was Active. The concentration for half-maximal inhibition (IC50) in assay [2] came to 3.7 µM; in assay [4] it was 0.328 µM. Moreover, the inhibition entry in assay [6] and in assay [7] was “Active” throughout. Also, in assay [3], the K is 2.67 ×10⁵ No_unit.

Turning to `CN(C)CCOc1ccc2c(=O)c3c(O)cc(OCCN(C)C)cc3oc2c1`, the result in assay [1] and in assay [5] was Active. Also, the IC50 in assay [2] worked out at 18 µM; in assay [4], 2.47 µM. Also, the K in assay [3] was determined as 1.65 ×10⁵ No_unit.

In the case of `O=c1c2ccc(OCCN3CCOCC3)cc2oc2cc(OCCN3CCOCC3)cc(O)c12`, the result in assay [1] and in assay [5] was Active. Besides, the results for the half-inhibitory concentration (IC50) in assay [2] and in assay [4] were more than 300 µM and 31.2 µM, respectively. For the same compound, the K in assay [3] was 1.14 ×10⁵ No_unit.

(Values after ChEMBL document CHEMBL4610047, “Design, synthesis and anti-Alzheimer's disease activity study of xanthone derivatives based on multi-target strategy” (Bioorg Med Chem Lett, 2020).)
